“And” between values parts separate entries of the source, which are not always exact repeats. Equal entries are not always repeated.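 48-hour exposure; five concentrations; linearly interpolated endpoints. At the GI50, growth is halved. TGI marks complete inhibition of growth.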
Tests used:
Assay in all cases: NCI anticancer screen, dose series, 48 h
[1] = tested on: DU-145 prostate
[2] = tested on: NCI/ADR-RES ovarian
[3] = tested on: U251 CNS
[4] = tested on: OVCAR-5 ovarian
[5] = tested on: LOX IMVI melanoma
[6] = tested on: SK-MEL-28 melanoma
[7] = tested on: A498 renal
[8] = tested on: UACC-257 melanoma
[9] = tested on: NCI-H460 lung
[10] = tested on: EKVX NSCLC

Compound | GI50 [1] [µM] | TGI [1] [µM] | GI50 [2] [µM] | TGI [2] [µM] | GI50 [3] | TGI [3] | GI50 [4] | TGI [4] | GI50 [5] [µM] | TGI [5] | GI50 [6] | TGI [6] | GI50 [7] [µM] | TGI [7] | GI50 [8] | TGI [8] | GI50 [9] | TGI [9] | TGI [10] | GI50 [10] [µM]
NC(N)=N/N=C(/c1ccccc1)c1ccc(Cl)cc1 | 4.89 | 24.8 | 24.4 | 85.9 | 9.4 µM | > 100 µM | 47.3 µM | > 100 µM | 18.4 | > 100 µM | 8.03 µM | > 100 µM | 4.71 | 28.7 µM | > 100 µM | > 100 µM | 9.93 µM | 44 µM |  | 
O=C(CC/C(CC(=O)c1ccc(Cl)cc1)=N/O)Nc1ccc(Cl)c(Cl)c1 |  |  |  |  |  | > 100 µM |  | > 100 µM |  |  |  | > 100 µM |  | > 100 µM |  | > 100 µM |  | > 100 µM | > 100 µM | 
O=C1CSC(=S)N1Cc1cccnc1 | 2.4 | 5.71 | 24 | > 100 | 23.5 µM | 61.5 µM | 13.2 µM | 26.8 µM | 2.58 | 12.5 µM | 11.4 µM | 27.3 µM | 22.7 | 56.2 µM | 5.97 µM | 21.9 µM | 18.4 µM | 48.7 µM |  | 
N#CCCN(CCC#N)c1ccc(/C=N\c2nc(-c3ccccc3)cs2)cc1 |  |  |  |  |  |  |  | > 100 µM |  | > 100 µM |  | > 100 µM |  | > 100 µM |  | > 100 µM |  | > 100 µM | > 100 µM | 
CCCCCCCCCCCCSC(=NC)NC | 3.12 | 12.3 | 2.06 | 4.53 |  |  | 1.83 µM | 4.16 µM |  |  | 1.72 µM | 3.22 µM | 2.63 | 8.69 µM | 2.15 µM | 5.14 µM | 1.84 µM | 3.52 µM | 17.6 µM | 3.71
N#CCc1ccc(/C(C#N)=C2/OC(=N)C(c3ccc(CC#N)cc3)C2=O)cc1 (configuration not stated) |  |  |  |  |  |  |  | > 100 µM |  | > 100 µM |  | > 100 µM |  | > 100 µM |  | > 100 µM |  | > 100 µM | > 100 µM | 
COc1ccc(/C(=N\O)c2cc(OC)c(OC)c(OC)c2)c(OC)c1N | 4.02 | > 100 |  |  | 5.17 µM | > 100 µM |  |  | 5.38 | > 100 µM |  |  | 3.75 | > 100 µM |  |  | 3.59 µM | > 100 µM | > 100 µM | 5.96
Cc1ccc(-c2nc3c(C(=O)NCCN(C)C)cccc3[nH]2)cc1 |  |  |  |  |  | 61.1 µM |  | 45.2 µM |  | 24.6 µM |  | 32.4 µM |  | 27.8 µM |  | 27.5 µM |  | 21.1 µM | 69.5 µM | 
COC(=O)c1c(C)cc2c(c1O)C1(O)C(=O)c3cc4c(c(O)c3C(=O)C1(OC)C(O)C2)C(=O)C=C(NC1OC(C)C(OC)C(O)C1OC)C4=O (configuration not stated) |  |  |  |  |  | 0.663 µM |  | 0.401 µM |  | 0.0866 µM |  |  |  | 0.71 µM |  | 0.0357 µM |  | 0.435 µM | 0.864 µM | 
O=C(Nc1ccc([N+](=O)[O-])cc1C(=O)O)c1ccc([N+](=O)[O-])cc1 |  |  |  |  |  | > 100 µM |  | > 100 µM |  | > 100 µM |  | > 100 µM |  | > 100 µM |  | > 100 µM |  | > 100 µM | > 100 µM | 
COCOCc1cc(OCc2ccccc2)c(OC)cc1Br |  |  |  |  |  | > 100 µM |  | > 100 µM |  | > 100 µM |  | > 100 µM |  | > 100 µM |  | > 100 µM |  | > 100 µM | > 100 µM | 
O=C1Cc2ccccc2N1c1c(Cl)cccc1Cl |  |  |  |  |  | > 100 µM |  | > 100 µM |  | > 100 µM |  | > 100 µM |  | > 100 µM |  | > 100 µM |  | > 100 µM | > 100 µM | 
Cc1nc(N)sc1N=Nc1cc(Cl)c([N+](=O)[O-])cc1Cl |  | 32.5 |  | 70.4 |  | 44.7 µM |  | 84.6 µM |  | 36.8 µM |  | 33.9 µM |  |  |  | 44.7 µM |  | 86.7 µM | 37.7 µM | 
Cc1cc(Cl)ccc1NC(=O)CC1SC(N)=NC1=O (configuration not stated) |  |  |  |  |  | > 100 µM |  | > 100 µM |  | > 100 µM |  | > 100 µM |  | > 100 µM |  | > 100 µM |  | > 100 µM | > 100 µM | 
O=C1CCCC(=O)C1=C(O)CCCCCCCCCCc1ccccc1 |  |  |  |  |  | > 100 µM |  | 74.6 µM |  | > 100 µM |  | > 100 µM |  |  |  | > 100 µM |  | > 100 µM | > 100 µM | 
CCOC(=O)N[C@H]1CCc2cc(O)c(OC)c(OC)c2-c2ccc(SC)c(=O)cc21 |  |  |  |  |  | > 6.92 µM |  | > 100 µM |  | > 100 µM |  | > 100 µM |  | 0.922 µM |  | > 100 µM |  | 3.58 µM | > 100 µM | 
CN(C)CC(C)(C)C(/C=C/c1ccccc1)=N\Nc1ccccc1 |  |  |  |  |  | 13.4 µM |  | 2 µM |  | 15.7 µM |  | 10.8 µM |  | 37.9 µM |  | 23.4 µM |  | 17.8 µM | 16.4 µM | 

Compound | GI50 [1] [µM] | TGI [1] [µM] | GI50 [2] [µM] | TGI [2] [µM] | GI50 [3] | TGI [3] | GI50 [4] | TGI [4] | GI50 [5] [µM] | TGI [5] | GI50 [6] | TGI [6] | GI50 [7] [µM] | TGI [7] | GI50 [8] | TGI [8] | GI50 [9] | TGI [9] | TGI [10] | GI50 [10] [µM]
Cn1cnc([N+](=O)[O-])c1SC1=NCCS1 |  |  |  |  |  | > 100 µM |  | > 100 µM |  | 39 µM |  | > 100 µM |  | > 100 µM |  | > 100 µM |  | > 100 µM | > 100 µM | 
CCN(CC)CCC(=O)N1CCc2c([nH]c3ccccc23)C1c1cccnc1 (configuration not stated) |  |  |  |  |  | > 100 µM |  | > 100 µM |  | > 100 µM |  | > 100 µM |  | > 100 µM |  | > 100 µM |  | > 100 µM | > 100 µM | 
Oc1ccc2c3c1OC1C(=NN=C4CCC5(O)C6Cc7ccc(O)c8c7C5(CCN6CC5CC5)C4O8)CCC4(O)C(C2)N(CC2CC2)CCC314 (configuration not stated) |  |  |  |  |  | 32.1 µM |  | > 100 µM |  | 39.1 µM |  | 49.4 µM |  | > 67.7 µM |  | 43.1 µM |  | 46.1 µM | > 85.2 µM | 
Cn1cnc([N+](=O)[O-])c1Sc1nc2cccnc2s1 |  |  |  |  |  | 65.8 µM |  | > 100 µM |  | 60.5 µM |  | 30.8 µM |  | > 100 µM |  | 27.9 µM |  | > 100 µM | 33.8 µM | 
C#C[C@@]1(O)CCCC2=CC(=O)C[C@]21C |  |  |  |  |  | > 100 µM |  | > 100 µM |  |  |  | > 100 µM |  |  |  | > 100 µM |  | > 100 µM | > 100 µM | 
CCOCC(=O)N[C@H]1CCc2cc(OC(=O)COCC)c(OC)c(OC)c2-c2ccc(SC)c(=O)cc21 | 0.0315 |  |  | 5.49 | 0.0154 µM |  | 0.0549 µM | > 100 µM |  | > 100 µM | > 100 µM | > 100 µM |  |  |  |  | 0.0395 µM |  | > 100 µM | 32.1
COc1cc(C(=O)/C=C/c2c(-c3ccc(F)cc3)nc3ncccn23)cc(OC)c1OC | 1.63 | 6.11 | 1.58 | 5.11 | 1.68 µM | 12.9 µM | 2.46 µM | 7.37 µM |  |  | 3.68 µM | > 100 µM | 2.2 | 7.58 µM | 3.73 µM | > 100 µM |  |  | > 100 µM | 2.71
COc1cc2c(cc1OCCCCCn1c(-c3ccco3)nc3ccccc31)N=C[C@@H]1CCCN1C2=O | < 0.0152 |  | 0.295 |  | < 0.01 µM | 11.2 µM |  |  |  |  | < 0.01 µM | < 0.0149 µM | < 0.01 | < 0.0156 µM | < 0.01 µM | < 0.01 µM | < 0.01 µM | 14.3 µM | 1.59 µM | < 0.0115
COc1ccc(NC(=O)COC(=O)c2cccc3c(=O)c4ccccc4[nH]c23)cc1 |  |  |  |  |  | 44.8 µM |  |  |  | 28.3 µM |  | 84.8 µM |  | 39.6 µM |  | 42.7 µM |  |  | 96.2 µM | 
Cc1ccc(NC(=O)COC(=O)c2cccc3c(=O)c4ccccc4[nH]c23)cc1 |  |  |  |  |  | > 100 µM |  |  |  | 60 µM |  | > 100 µM |  | 92.4 µM |  | > 100 µM |  | > 100 µM | > 100 µM | 
S=P1(c2ccccc2)Nc2ccc(Cl)cc2N1 (configuration not stated) |  |  |  |  |  | > 100 µM |  | > 100 µM |  | > 100 µM |  | > 100 µM |  | > 100 µM |  | > 100 µM |  | > 100 µM | > 100 µM | 
C=CCC12CC(=O)C=C1CCC1(C2)OCCO1 (configuration not stated) |  |  |  |  |  | > 100 µM |  |  |  |  |  | > 100 µM |  | > 100 µM |  | > 100 µM |  | > 100 µM |  | 
CCC[CH2][Sn]1([CH2]CCC)[O]C(=O)c2cccc(OC)c2[O]1 |  |  |  |  | 0.237 µM | 0.751 µM | 1.55 µM | 2.9 µM | 0.161 | 0.442 µM | 0.234 µM | 0.747 µM | 0.21 | 0.465 µM | 0.199 µM | 0.537 µM | 1.38 µM | 2.9 µM | 2.7 µM | 1.31
CC1C=CC(C)C2(O)C(=O)NC(O)C12 (configuration not stated) |  |  |  |  |  | > 100 µM |  |  |  |  |  | > 100 µM |  | > 100 µM |  | > 100 µM |  | > 100 µM | > 100 µM | 
C/C=C(\CCC1NCCc2c1[nH]c1ccccc21)[Si](C)(C)C (configuration not stated) |  | 26.1 |  |  | 5.79 µM and 1.8 µM | 10.5 µM and 3.27 µM | 6.34 µM and 2.42 µM | 16.6 µM and 8.04 µM |  | 38.5 µM and 4.84 µM | 6.42 µM and 1.83 µM | 11.3 µM and 3.36 µM |  | 14 µM and 9.88 µM | 5.75 µM and 1.7 µM | 10.7 µM and 3.71 µM | 5.56 µM and 1.92 µM | 10.9 µM and 3.78 µM | 28.6 µM and 22.1 µM | 
O=C1C2C(C(=O)N1c1ccccc1)C1(c3ccccc3)OC2(c2ccccc2)c2ccccc21 (configuration not stated) |  |  |  |  |  | > 100 µM |  | > 100 µM |  | > 100 µM |  | > 100 µM |  |  |  | > 100 µM |  | > 100 µM | > 100 µM | 
